target: human capsaicin receptor (VR1) (Homo sapiens, UniProt Q8NER1); test: Capsaicin receptor binding assay ([3H]RTX competition, VR1-transfected HEK293 membranes)
Sequence (Q8NER1 whole entry): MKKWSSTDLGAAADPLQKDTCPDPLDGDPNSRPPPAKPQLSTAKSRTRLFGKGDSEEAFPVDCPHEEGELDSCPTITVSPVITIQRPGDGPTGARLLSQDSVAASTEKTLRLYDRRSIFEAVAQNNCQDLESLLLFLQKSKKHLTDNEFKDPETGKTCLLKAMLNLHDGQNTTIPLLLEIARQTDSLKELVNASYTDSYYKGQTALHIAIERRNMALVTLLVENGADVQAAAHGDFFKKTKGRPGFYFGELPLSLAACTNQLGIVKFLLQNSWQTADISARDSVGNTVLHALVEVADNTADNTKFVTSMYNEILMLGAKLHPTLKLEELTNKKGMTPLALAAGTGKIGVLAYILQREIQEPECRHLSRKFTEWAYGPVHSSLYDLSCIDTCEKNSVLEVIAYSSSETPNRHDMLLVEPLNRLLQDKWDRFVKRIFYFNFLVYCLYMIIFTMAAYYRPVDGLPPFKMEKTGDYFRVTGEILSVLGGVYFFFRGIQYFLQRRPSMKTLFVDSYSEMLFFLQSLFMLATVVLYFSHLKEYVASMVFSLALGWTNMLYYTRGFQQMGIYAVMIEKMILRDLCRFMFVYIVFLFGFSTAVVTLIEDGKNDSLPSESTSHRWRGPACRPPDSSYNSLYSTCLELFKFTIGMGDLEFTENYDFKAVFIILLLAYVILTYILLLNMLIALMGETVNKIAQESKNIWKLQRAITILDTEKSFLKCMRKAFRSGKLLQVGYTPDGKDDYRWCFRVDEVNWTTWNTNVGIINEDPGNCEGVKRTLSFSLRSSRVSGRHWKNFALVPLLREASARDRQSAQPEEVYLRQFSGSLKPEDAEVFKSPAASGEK

Ki, < 1 µM:
CCc1ccc(Nc2nc(CN3C[C@H](C)O[C@@H](C)C3)nc3cc(-c4ncccc4Cl)ccc23)cc1 [Compound 651, (S,S)-[7-(3-Chloro-pyridin-2-yl)-2-(2,6-dimethyl-morpholin-4-ylmethyl)-quinazolin-4-yl]-(4-ethyl-phenyl)-amine]
CCCN(Cc1nc(Nc2ccc(C(F)(F)F)cc2)c2ccc(-c3ncccc3C(F)(F)F)cc2n1)CC1CC1 [Compound 551, [2-[(Cyclopropylmethyl-propyl-amino)-methyl]-7-(3-trifluoromethyl-pyridin-2-yl)-quinazolin-4-yl]-(4-trifluoromethyl-phenyl)-amine]
CCOC(=O)Cc1nc(Nc2ccc(C(F)(F)F)cc2)c2ccc(-c3ncccc3C(F)(F)F)cc2n1 [Compound 20, [4-(4-Trifluoromethyl-phenylamino)-7-(3-trifluoromethyl-pyridin-2-yl)-quinazolin-2-yl]-acetic acid ethyl ester]
C[C@@H]1CN(Cc2nc(Nc3ccc(C(C)(C)C)cc3)c3ccc(-c4ncccc4Cl)cc3n2)C[C@@H](C)O1 [Compound 621, (R,R)-(4-tert-Butyl-phenyl)-[7-(3-chloro-pyridin-2-yl)-2-(2,6-dimethyl-morpholin-4-ylmethyl)-quinazolin-4-yl]-amine]
O=C(O)C1CCCCN1Cc1nc(Nc2ccc(C(F)(F)F)cc2)c2ccc(-c3ncccc3C(F)(F)F)cc2n1 (centres unmarked) [Compound 737, 1-[4-(4-Trifluoromethyl-phenylamino)-7-(3-trifluoromethyl-pyridin-2-yl)-quinazolin-2-ylmethyl]-piperidine-2-carboxylic acid]
OCc1cc2nc(-c3ncccc3C(F)(F)F)ccc2c(Nc2ccc(C(F)(F)F)cc2)n1 [Compound 286, [5-(4-Trifluoromethyl-phenylamino)-2-(3-trifluoromethyl-pyridin-2-yl)-[1,6]naphthyridin-7-yl]-methanol]
C=CCN(CC=C)Cc1nc(Nc2ccc(C(F)(F)F)cc2)c2ncc(-c3ncccc3C(F)(F)F)cc2n1 [Compound 663, [2-Diallylaminomethyl-7-(3-trifluoromethyl-pyridin-2-yl)-pyrido[3,2-d]pyrimidin-4-yl]-(4-trifluoromethyl-phenyl)-amine]
C=CCN(CC=C)CCc1nc(Nc2ccc(C(F)(F)F)cc2)c2ccc(-c3ncccc3C(F)(F)F)cc2n1 [Compound 415, [2-Diallylaminoethyl-7-(3-trifluoromethyl-pyridin-2-yl)-quinazolin-4-yl]-(4-trifluoromethyl-phenyl)-amine]
CN(CCc1nc(Nc2ccc(C(F)(F)F)cc2)c2ccc(-c3ncccc3C(F)(F)F)cc2n1)C1CCc2ccccc21 (centres unmarked) [Compound 389, [2-[2-(Indan-1-yl-methyl-amino)-ethyl]-7-(3-trifluoromethyl-pyridin-2-yl)-quinazolin-4-yl]-(4-trifluoromethyl-phenyl)-amine]
CC(C)OCc1nc(Nc2ccc(S(=O)(=O)N3CCOCC3)cc2)c2ccc(-c3ncccc3C(F)(F)F)cc2n1 [Compound 128, [2-Isopropoxymethyl-7-(3-trifluoromethyl-pyridin-2-yl)-quinazolin-4-yl]-[4-(morpholine-4-sulfonyl)-phenyl]-amine]
CC(C)S(=O)(=O)c1ccc(Nc2nc(CN3C[C@H](C)O[C@@H](C)C3)nc3cc(-c4ncccc4Cl)ccc23)cc1 [Compound 645, (S,S)-[7-(3-Chloro-pyridin-2-yl)-2-(2,6-dimethyl-morpholin-4-ylmethyl)-quinazolin-4-yl]-[4-(propane-2-sulfonyl)-phenyl]-amine]
Cc1cccnc1-c1ccc2c(Nc3ccc(C(C)C)cc3)nc(COCC(C)C)nc2n1 [Compound 130, [2-Isobutoxymethyl-7-(3-methyl-pyridin-2-yl)-pyrido[2,3-d]pyrimidin-4-yl]-(4-isopropyl-phenyl)-amine]
Cc1cccnc1-c1ccc2c(Nc3ccc(C(F)(F)F)cc3)nc(CN3CCC[C@H]3C(=O)O)nc2n1 [Compound 747, (S)-1-[7-(3-Methyl-pyridin-2-yl)-4-(4-trifluoromethyl-phenylamino)-pyrido[2,3-d]pyrimidin-2-ylmethyl]-pyrrolidine-2-carboxylic acid]
FC(F)(F)c1ccc(Nc2nc(CCN3CCCCC3)nc3cc(-c4ncccc4C(F)(F)F)ccc23)cc1 [Compound 399, [2-Piperidin-1-ylethyl-7-(3-trifluoromethyl-pyridin-2-yl)-quinazolin-4-yl]-(4-trifluoromethyl-phenyl)-amine]
OC1CCCN(CCc2nc(Nc3ccc(C(F)(F)F)cc3)c3ccc(-c4ncccc4C(F)(F)F)cc3n2)C1 (centres unmarked) [Compound 588, [2-(3-Hydroxy-piperidin-1-ylethyl)-7-(3-trifluoromethyl-pyridin-2-yl)-quinazolin-4-yl]-(4-trifluoromethyl-phenyl)-amine]
FC(F)(F)c1ccc(Nc2nc(CCN(Cc3ccccc3)C3CC3)nc3cc(-c4ncccc4C(F)(F)F)ccc23)cc1 [Compound 397, [2-[2-(Benzyl-cyclopropyl-amino)-ethyl]-7-(3-trifluoromethyl-pyridin-2-yl)-quinazolin-4-yl]-(4-trifluoromethyl-phenyl)-amine]
CCN(CC)CCCOCc1nc(Nc2ccc(C(C)(C)C)cc2)c2ccc(-c3ncccc3C(F)(F)F)cc2n1 [Compound 117, (4-tert-Butyl-phenyl)-[2-(3-diethylamino-propoxymethyl)-7-(3-trifluoromethyl-pyridin-2-yl)-quinazolin-4-yl]-amine]
CC1CCCN(CCCc2nc(Nc3ccc(C(F)(F)F)cc3)c3ccc(-c4ncccc4C(F)(F)F)cc3n2)C1 (centres unmarked) [Compound 572, [2-[3-(3-Methyl-piperidin-1-yl)-propyl]-7-(3-trifluoromethyl-pyridin-2-yl)-quinazolin-4-yl]-(4-trifluoromethyl-phenyl)-amine]
C[C@@H]1CN(C(=O)c2nc(Nc3ccc(C(F)(F)F)cc3)c3ccc(-c4ncccc4C(F)(F)F)cc3n2)C[C@H](C)O1 [Compound 702, (2,6-Dimethyl-morpholin-4-yl)-[4-(4-trifluoromethyl-phenylamino)-7-(3-trifluoromethyl-pyridin-2-yl)-quinazolin-2-yl]-methanone (cis)]
CC1CC(C)CN(Cc2nc(Nc3ccc(C(F)(F)F)cc3)c3ccc(-c4ncccc4C(F)(F)F)cc3n2)C1 (centres unmarked) [Compound 552, [2-(3,5-Dimethyl-piperidin-1-ylmethyl)-7-(3-trifluoromethyl-pyridin-2-yl)-quinazolin-4-yl]-(4-trifluoromethyl-phenyl)-amine]
FC(F)(F)c1ccc(Nc2cc(CN3CCOCC3)nc3nc(-c4ncccc4C(F)(F)F)ccc23)cc1 [Compound 800]
C[C@@H]1CN(Cc2nc(Nc3ccc(S(=O)(=O)C(F)(F)F)cc3)c3ncc(-c4ncccc4C(F)(F)F)cc3n2)C[C@H](C)O1 [Compound 593, [2-(2,6-Dimethyl-morpholin-4-ylmethyl)-7-(3-trifluoromethyl-pyridin-2-yl)-pyrido[3,2-d]pyrimidin-4-yl]-(4-trifluoromethanesulfonyl-phenyl)-amine (cis)]
C[C@@H]1CN(Cc2nc(Nc3ccc(C(C)(C)C)cc3)c3ccc(-c4ncccc4C(F)(F)F)cc3n2)CCO1 [Compound 682, (R)-(4-tert-Butyl-phenyl)-[2-(2-methyl-morpholin-4-ylmethyl)-7-(3-trifluoromethyl-pyridin-2-yl)-quinazolin-4-yl]-amine]

— US20040156869A1, “2-substituted quinazolin-4-ylamine analogues” (Neurogen Corporation, priority 2002, published 2004)
